Source: US11147881B2, “Controlled drug release liposome compositions and methods thereof” (TAIWAN LIPOSOME COMPANY, LTD., priority 2013, dated 2021)
Each block holds one compound with its values, some of them ahead of it.

Tests used:
[1] = Precipitation study of irinotecan with mono- and polyvalent counterion donors; format: physicochemical
Experimental: (§1) To examine the precipitation, therapeutic agent solution(s) and counterion donor(s), or therapeutic agent solution(s) and combination of counterion donors were mixed, followed by vigorous agitation and high speed centrifugation to separate insoluble precipitate and free form therapeutic agent(s). The concentration of the free form therapeutic agent(s) was determined by measuring the corresponding absorbance with a plate reader.
(§2) Various compositions were prepared by mixing 60 mg/mL of irinotecan solution and liposomes with 1 mM to 22.5 mM of dextran sulfate (molecular weight 1,600), or with 300 mM of ammonium sulfate and 1 mM to 22.5 mM of dextran sulfate (molecular weight 1,600), followed by vigorous agitation by vortex and centrifugation at 21,460×g for 30 minutes to separate insoluble precipitate from free-form irinotecan. The volume ratio for mixing the irinotecan solution and the counterion donor solution was 1:2, with the final equivalent counterion donor concentrations shown in Table 13.

[2] = Precipitation study of vinorelbine with mono- and polyvalent counterion donors; format: physicochemical
Experimental: As shown in Example 7, the percentage of encapsulated vinorelbine remaining after plasma incubation is adjustable according to the present invention. The percentage of encapsulated therapeutic agent remaining after plasma incubation can be monitored by precipitation among encapsulated therapeutic agent(s) and counterion donor(s) in the aqueous environment as in FIG. 1, FIG. 5, and FIG. 6. The counterion donors could be selected from monovalent counterion donor(s), polyvalent counterion donor(s), or a combination thereof.
as §1
as §2, with “vinorelbine” for “irinotecan”, “vinorelbine.” for “irinotecan.”, “12.” for “13.”

[3] = AS = 0 mM, DS = 0.67 mM (5.27 mEq/L)
[4] = AS = 0 mM, DS = 2.5 mM (19.68 mEq/L)
[5] = AS = 0 mM, DS = 5 mM (39.35 mEq/L)
[6] = AS = 0 mM, DS = 15 mM (118.05 mEq/L)
[7] = AS = 200 mM, DS = 0 mM (0 mEq/L)
[8] = AS = 200 mM, DS = 0.67 mM (5.27 mEq/L)
[9] = AS = 200 mM, DS = 2.5 mM (19.68 mEq/L)
[10] = AS = 200 mM, DS = 5 mM (39.35 mEq/L)
[11] = AS = 200 mM, DS = 15 mM (118.05 mEq/L)

Percentage of free-form CPT11 remaining ([1]; AS = 0 mM, DS = 0 mM): 103.4%
Percentage of free-form CPT11 remaining [1, 3]: 82.0%
Percentage of free-form CPT11 remaining ([1]; AS = 0 mM, DS = 1.6 mM (12.59 mEq/L)): 50.9%
Percentage of free-form CPT11 remaining [1, 4]: 27.3%
Percentage of free-form CPT11 remaining [1, 5]: 2.3%
Percentage of free-form CPT11 remaining [1, 6]: 3.8%
Percentage of free-form CPT11 remaining [1, 7]: 101.1%
Percentage of free-form CPT11 remaining [1, 8]: 83.8%
Percentage of free-form CPT11 remaining ([1]; AS = 200 mM, DS = 1.6 mM (12.59 mEq/L)): 59.4%
Percentage of free-form CPT11 remaining [1, 9]: 38.3%
Percentage of free-form CPT11 remaining [1, 10]: 9.7%
Percentage of free-form CPT11 remaining [1, 11]: 9.0%
visible precipitation with sodium dextran sulfate ([1]; FIG. 6 left): precipitation
visible precipitation with ammonium sulfate ([1]; FIG. 6 right): no visible precipitation
enhancement of free-form irinotecan by ammonium sulfate (as compared to DS alone) ([1]; maximum, at DS of 19.68 mEq/L): up to 11%
Compound: CCc1c2c(nc3ccc(OC(=O)N4CCC(N5CCCCC5)CC4)cc13)-c1cc3c(c(=O)n1C2)COC(=O)[C@]3(O)CC [irinotecan]

Percentage of free-form VNB remaining ([2]; AS = 0 mM, DS = 0 mM): 100.7%
Percentage of free-form VNB remaining [2, 3]: 87.1%
Percentage of free-form VNB remaining [2, 4]: 54.0%
Percentage of free-form VNB remaining [2, 5]: 11.0%
Percentage of free-form VNB remaining [2, 6]: 5.4%
Percentage of free-form VNB remaining [2, 7]: 97.6%
Percentage of free-form VNB remaining [2, 8]: 83.3%
Percentage of free-form VNB remaining [2, 9]: 59.0%
Percentage of free-form VNB remaining [2, 10]: 21.2%
Percentage of free-form VNB remaining [2, 11]: 5.7%
visible precipitation with sodium dextran sulfate ([2]; FIG. 5 left): precipitation
visible precipitation with ammonium sulfate ([2]; FIG. 5 right): no visible precipitation
enhancement of free-form vinorelbine by ammonium sulfate (as compared to DS alone) ([2]; maximum, at DS of 39.35 mEq/L): up to 10.2%
Compound: CCC1=C[C@@H]2CN(C1)Cc1c([nH]c3ccccc13)[C@@](C(=O)OC)(c1cc3c(cc1OC)N(C)[C@H]1[C@@](O)(C(=O)OC)[C@H](OC(C)=O)[C@]4(CC)C=CCN5CC[C@]31[C@@H]54)C2 [vinorelbine]
